Source: ChEMBL document CHEMBL4342407, “Thieno[2,3-d]pyrimidine as a promising scaffold in medicinal chemistry: Recent advances” (Bioorg Med Chem, 2019)
Values after ≈ are worked out from the molar mass of the structure shown.

Tests used:
[1] = test system: BT-549; experiment: Antiproliferative activity against human BT549 after 48 hrs by MTT assay; format: functional; settings: BT-549, 48 h
[2] = test system: MCF7; experiment: Antiproliferative activity against human MCF7 after 48 hrs by MTT assay; format: functional; settings: MCF7, 48 h
[3] = test system: DU-145; experiment: Antiproliferative activity against human DU145 after 48 hrs by MTT assay; format: functional; settings: DU-145, 48 h
[4] = test system: A549; experiment: Antiproliferative activity against human A549 after 48 hrs by MTT assay; format: functional; settings: A549, 48 h
[5] = test system: HCT-15; experiment: Antiproliferative activity against human HCT15 after 48 hrs by MTT assay; format: functional; settings: HCT-15, 48 h
[6] = test system: HCT-116; experiment: Antiproliferative activity against human HCT116 after 48 hrs by MTT assay; format: functional; settings: HCT-116, 48 h
[7] = test system: HT-29; experiment: Antiproliferative activity against human HT-29 after 48 hrs by MTT assay; format: functional; settings: HT-29, 48 h
[8] = test system: MDA-MB-453; experiment: Antiproliferative activity against human MDA-MB-453 after 48 hrs by MTT assay; format: functional; settings: MDA-MB-453, 48 h
[9] = test system: Bacillus subtilis; experiment: Antibacterial activity against Bacillus subtilis ATCC 6633 assessed as diameter of zone inhibition at 30 ug/ml; format: functional; settings: read-out: DIZ
[10] = test system: Escherichia coli; experiment: Antibacterial activity against Escherichia coli ATCC 25922 assessed as diameter of zone inhibition at 30 ug/ml; format: functional; settings: read-out: DIZ
[11] = test system: Candida albicans; experiment: Antifungal activity against Candida albicans ATCC 653/885 assessed as diameter of zone inhibition at 30 ug/ml; format: functional; settings: read-out: DIZ
[12] = test system: Staphylococcus aureus; experiment: Antibacterial activity against Staphylococcus aureus ATCC 25923 assessed as diameter of zone inhibition at 30 ug/ml; format: functional; settings: read-out: DIZ
[13] = test system: MCF7; experiment: Antiproliferative activity against human MCF7 after 24 hrs by MTT assay; format: functional, cell-based; settings: MCF7, 24 h
[14] = test system: HEp-2; experiment: Antiproliferative activity against human Hep2 after 24 hrs by MTT assay; format: functional, cell-based; settings: HEp-2, 24 h
[15] = test system: HeLa; experiment: Antiproliferative activity against human HeLa after 24 hrs by MTT assay; format: functional, cell-based
[16] = test system: HepG2; experiment: Antiproliferative activity against human HepG2 after 24 hrs by MTT assay; format: functional, cell-based; settings: HepG2, 24 h
[17] = Inhibition of PTK (unknown origin) using poly-Glu-Tyr (PGT) as substrate by ELISA; set-up: species or system Homo sapiens
[18] = test system: PC-3; experiment: Antiproliferative activity against human PC3 after 24 hrs by MTT assay; format: functional, cell-based; settings: PC-3, 24 h
[19] = test system: Human alphaherpesvirus 1; experiment: Antiviral activity against Herpes simplex virus 1 at 20 ug/10^5; format: functional
[20] = test system: Human alphaherpesvirus 1; experiment: Antiviral activity against Herpes simplex virus 1 at 50 ug/10^5; format: functional
[21] = Inhibition of Influenza A virus H3N2 Neuraminidase
[22] = test system: Escherichia coli; experiment: Antibacterial activity against Escherichia coli ATCC 25922 assessed as diameter of zone inhibition at 100 ug/ml; format: functional; settings: read-out: DIZ
[23] = test system: Staphylococcus aureus; experiment: Antibacterial activity against Staphylococcus aureus ATCC 25923 assessed as diameter of zone inhibition at 100 ug/ml; format: functional; settings: read-out: DIZ
[24] = test system: Bacillus subtilis; experiment: Antibacterial activity against Bacillus subtilis ATCC 6633 assessed as diameter of zone inhibition at 100 ug/ml; format: functional; settings: read-out: DIZ
[25] = test system: A549; experiment: Antiproliferative activity against human A549 after 18 hrs by MTT assay; format: functional, cell-based; settings: A549, 18 h
[26] = test system: HCT-116; experiment: Antiproliferative activity against human HCT116 after 18 hrs by MTT assay; format: functional, cell-based; settings: HCT-116, 18 h
[27] = test system: MCF7; experiment: Antiproliferative activity against human MCF7 after 18 hrs by MTT assay; format: functional, cell-based; settings: MCF7, 18 h
[28] = test system: Rhodococcus fascians; experiment: Antibacterial activity against Mycobacterium luteum assessed as diameter of zone inhibition at 0.5% incubated for 24 hrs by stiff plate agar diffusion method; format: functional, Rhodococcoides fascians
[29] = test system: Staphylococcus aureus; experiment: Antibacterial activity against Staphylococcus aureus assessed as diameter of zone inhibition at 0.5% incubated for 24 hrs by stiff plate agar diffusion method; format: functional
[30] = test system: Aspergillus niger; experiment: Antifungal activity against Aspergillus niger incubated for 24 to 72 hrs by Serial dilution method; format: functional
[31] = test system: Aspergillus niger; experiment: Antifungal activity against Aspergillus niger assessed as diameter of zone inhibition at 0.1% incubated for 24 hrs by stiff plate agar diffusion method; format: functional
[32] = test system: Escherichia coli; experiment: Antibacterial activity against Escherichia coli assessed as diameter of zone inhibition at 0.5% incubated for 24 hrs by stiff plate agar diffusion method; format: functional
[33] = test system: Aspergillus niger; experiment: Antifungal activity against Aspergillus niger assessed as diameter of zone inhibition at 0.5% incubated for 24 hrs by stiff plate agar diffusion method; format: functional
[34] = species: Homo sapiens; experiment: Selectivity ratio of IC50 for CDK2/cyclin E (unknown origin) expressed in baculovirus infected Sf9 insect cells to IC50 for CDK4/cyclin D1 (unknown origin) expressed in baculovirus infected Sf9 insect cells
[35] = molecular target: Cyclin-dependent kinase 2/cyclin E1 (Homo sapiens, UniProt P24941); experiment: Inhibition of CDK2/cyclin E (unknown origin) expressed in baculovirus infected Sf9 insect cells using GST-Rb as substrate in presence of [33P] ATP incubated for 30 mins
[36] = molecular target: Cyclin-dependent kinase 4/cyclin D1 (Homo sapiens, UniProt P11802); experiment: Inhibition of CDK4/cyclin D1 (unknown origin) expressed in baculovirus infected Sf9 insect cells using GST-Rb as substrate in presence of [33P] ATP incubated for 30 mins
[37] = test system: Rattus norvegicus; experiment: Antiinflammatory activity in Sprague-Dawley rat assessed as inhibition of carrageenan-induced edema at 10 mg/kg, po pretreated for 1 hr followed by carrageenan challenge and measured after 4 hrs by mercury plethysmometer relative to control; format: functional

Sequence of Cyclin-dependent kinase 4/cyclin D1 (P11802 whole entry): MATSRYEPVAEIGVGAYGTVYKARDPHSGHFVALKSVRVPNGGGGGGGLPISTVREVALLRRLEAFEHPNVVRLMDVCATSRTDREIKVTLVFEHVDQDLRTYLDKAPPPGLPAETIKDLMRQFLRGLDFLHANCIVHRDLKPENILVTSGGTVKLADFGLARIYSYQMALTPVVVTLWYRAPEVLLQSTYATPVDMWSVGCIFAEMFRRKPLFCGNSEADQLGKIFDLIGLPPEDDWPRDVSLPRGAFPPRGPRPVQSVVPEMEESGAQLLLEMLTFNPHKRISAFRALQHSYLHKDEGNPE
Sequence of Cyclin-dependent kinase 4/cyclin D1 (P24385 whole entry, further chain): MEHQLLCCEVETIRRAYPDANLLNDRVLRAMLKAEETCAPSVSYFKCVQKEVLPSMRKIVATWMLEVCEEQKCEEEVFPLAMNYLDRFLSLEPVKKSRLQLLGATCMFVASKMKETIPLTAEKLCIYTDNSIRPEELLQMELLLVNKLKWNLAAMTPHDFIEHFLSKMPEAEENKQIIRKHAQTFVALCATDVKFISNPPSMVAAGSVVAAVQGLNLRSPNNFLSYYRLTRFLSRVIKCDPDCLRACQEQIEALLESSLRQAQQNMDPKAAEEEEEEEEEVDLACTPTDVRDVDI

O=C(/C=C/c1cccc(C(F)(F)F)c1)Nc1cccc(Nc2ncnc3sccc23)c1
GI50 [1]: 3.1 µM
GI50 [2]: 0.8 µM
GI50 [3]: 5.4 µM
GI50 [4]: 4.6 µM
GI50 [5]: 5.1 µM
GI50 [6]: 5.8 µM
GI50 [7]: > 10 µM
GI50 [8]: 0.9 µM

Cc1ncc([N+](=O)[O-])n1CCO [METRONIDAZOLE]
zone of inhibition at 30 µg/mL [9]: 16 mm
zone of inhibition at 30 µg/mL [10]: 14 mm
zone of inhibition at 30 µg/mL [11]: 14 mm
zone of inhibition at 30 µg/mL [12]: 14 mm

Cc1ccc(/C=C/C(=O)c2sc3nc(S)n(-c4ccccc4)c(=O)c3c2C)cc1
IC50 [13]: 6.84 µM
IC50 [14]: 5.4 µM
IC50 [15]: 4.3 µM
IC50 [16]: 7.99 µM
IC50 [17]: 136 µM
IC50 [18]: 7.71 µM

OCCSc1ncnc2sc3c(c12)-c1ccccc1CC3
Activity [19]: 5%
Activity [20]: 30%

C/C(=N\Nc1nc(-c2c[nH]c3ccccc23)nc2sc3c(c12)CCCC3)c1ccccc1
IC50 [21]: 0.237 µM

Cc1ccc([N+](=O)[O-])c(C(=O)Nc2cccc(Nc3ncnc4sccc34)c2)c1
GI50 [1]: > 10 µM
GI50 [2]: 3.3 µM
GI50 [3]: 7.5 µM
GI50 [4]: 8.6 µM
GI50 [5]: 3.6 µM
GI50 [6]: 3.5 µM
GI50 [7]: > 10 µM
GI50 [8]: 8.2 µM

Cc1c(-c2nnc(-c3ccccc3)o2)sc2c1c(=O)n(-c1ccccc1)c(=O)n2Cc1nc(-c2ccccc2)no1
zone of inhibition at 100 µg/mL [22]: 14 mm
zone of inhibition at 100 µg/mL [23]: 15 mm
zone of inhibition at 100 µg/mL [24]: 17 mm

Cc1ccc(-c2cc(COc3ncnc4sc(C)cc34)on2)cc1
IC50 [25]: 144 µM
IC50 [26]: 53.9 µM
IC50 [27]: 13.5 µM

Cc1c(-c2nnc(-c3ccccc3)o2)sc2c1c(=O)n(-c1ccccc1)c(=O)n2Cc1nc(-c2ccccc2Cl)no1
zone of inhibition at 100 µg/mL [22]: 14 mm
zone of inhibition at 100 µg/mL [23]: 15 mm
zone of inhibition at 100 µg/mL [24]: 17 mm

CCc1cc2c(OCc3cc(-c4ccc(Cl)cc4)no3)ncnc2s1
IC50 [25]: 45.5 µM
IC50 [26]: 33.3 µM

Cc1nc(SCCO)c2c3c(sc2n1)CCc1ccccc1-3
Activity [19]: 40%
Activity [20]: 75%

O=C1CCC(=O)N1Nc1nc(-c2c[nH]c3ccccc23)nc2sc3c(c12)CCCC3
IC50 [21]: 0.021 µM

CCc1sc2ncnc(SCC(=O)NS(=O)(=O)c3ccc(Cl)cc3)c2c1CC
diameter of the inhibition zone (DIZ) [28]: 17 mm
diameter of the inhibition zone (DIZ) [29]: 12 mm

CCCCCc1sc2nc[nH]c(=[Se])c2c1CCCCC
MIC [30]: 31.2 µg/mL (≈ 87.8 µM)
diameter of the inhibition zone (DIZ) [31]: 12 mm
diameter of the inhibition zone (DIZ) [32]: 14 mm
diameter of the inhibition zone (DIZ) [33]: 22 mm

COc1cc(/C=C/C(=O)c2sc3nc(S)n(-c4ccccc4)c(=O)c3c2C)cc(OC)c1OC
IC50 [13]: 17.1 µM
IC50 [14]: 22.1 µM
IC50 [15]: 12.9 µM
IC50 [16]: 20.6 µM
IC50 [17]: 203 µM
IC50 [18]: 16.4 µM

CC(N)c1csc(/C=N/Nc2ncnc3sc(C(C)(C)CF)cc23)n1 (stereo not drawn)
Ratio IC50 [34]: 14.7
IC50 [35]: 0.68 µM
IC50 [36]: 0.046 µM

CN[C@@H]1[C@H](O[C@H]2[C@H](O[C@H]3[C@H](O)[C@@H](O)[C@H](N=C(N)N)[C@@H](O)[C@@H]3N=C(N)N)O[C@@H](C)[C@]2(O)C=O)O[C@@H](CO)[C@H](O)[C@H]1O [STREPTOMYCIN]
zone of inhibition at 30 µg/mL [9]: 17 mm
zone of inhibition at 30 µg/mL [10]: 16 mm
zone of inhibition at 30 µg/mL [12]: 15 mm

O=C(Nc1cccc(Nc2ncnc3sccc23)c1)c1ccc(F)cc1
GI50 [1]: 1.3 µM
GI50 [2]: 1.6 µM
GI50 [3]: 9.2 µM
GI50 [4]: 4.3 µM
GI50 [5]: > 10 µM
GI50 [6]: 10.2 µM
GI50 [7]: > 10 µM
GI50 [8]: > 10 µM

Cc1sc2nc[nH]c(=[Se])c2c1C
diameter of the inhibition zone (DIZ) [32]: 14.7 mm
diameter of the inhibition zone (DIZ) [33]: 12 mm

Cc1cc2c(OCc3cc(-c4ccc(Cl)cc4)no3)ncnc2s1
IC50 [25]: 2.79 µM
IC50 [26]: 6.69 µM

COc1ccc2c(c1)c(CC(=O)O)c(C)n2C(=O)c1ccc(Cl)cc1 [INDOMETHACIN]
inhibition in vivo at 10 mg/kg [37]: 49.1%

CCOC(=O)CSc1ncnc2sc(CC)c(CC)c12
MIC [30]: 31.2 µg/mL (≈ 101 µM)

CCC(C)c1cc2c(N/N=C/c3nc(CNC)cs3)ncnc2s1 (stereo not drawn)
Ratio IC50 [34]: 15.2
IC50 [35]: 0.44 µM
IC50 [36]: 0.029 µM

O=CC1CN(c2nc(-c3c[nH]c4ccccc34)nc3sc4c(c23)CCCC4)N=C1c1ccccc1 (stereo not drawn)
IC50 [21]: 0.089 µM

O=C1c2ccccc2C(=O)N1Nc1nc(-c2c[nH]c3ccccc23)nc2sc3c(c12)CCCC3
IC50 [21]: 0.067 µM

COCCSc1nc(C)nc2sc3c(c12)-c1ccccc1CC3
Activity [19]: 5%
Activity [20]: 45%

CNCc1csc(/C=N/Nc2ncnc3sc(C(C)C(C)C)cc23)n1 (stereo not drawn)
Ratio IC50 [34]: 40
IC50 [35]: 0.88 µM
IC50 [36]: 0.022 µM

Cc1c(-c2nnc(-c3ccccc3)o2)sc2c1c(=O)n(-c1ccccc1)c(=O)n2Cc1nc(-c2ccc(Cl)cc2)no1
zone of inhibition at 100 µg/mL [22]: 14 mm
zone of inhibition at 100 µg/mL [23]: 15 mm
zone of inhibition at 100 µg/mL [24]: 17 mm
